Measurements taken from US6344571B2, “Water soluble analogs and prodrugs of paclitaxel” (Pharmachemie B.V., priority 1998, dated 2002).
Values after ≈ are worked out from the molar mass of the structure shown. “Also recorded” adds a separate entry of the source. Like-named read-outs stand apart in the source and are kept apart here.

How the values were obtained:
[1] = Water solubility (suspension in water or PBS-buffer, HPLC)
Method: Water Solubility: Paclitaxel or paclitaxel prodrugs (5, 6, 8, 11) were suspended in water or PBS-buffer (pH 7.4) until a concentration was reached of 2 mg/ml. The suspensions were sonicated for 15 minutes and centrifuged (13000 g) for 10 minutes (Nicolaou, K. C. et al. Nature 1993, 364, 464-466). The above fluid was analyzed, using HPLC. The paclitaxel (prodrug) concentration was determined using paclitaxel standards in methanol.
HPLC: Rheodyne injection valve (20 μl loop); Lichrospher 5RP18 column (200×3 mm, Chrompack); UV-detector (Model 759A, Applied Biosystems); eluent: CH3CN/MeOH/H2O: 5/1/4 in 10 mM NH4OAc (pH 5.0) (Willey, T. A. J. Chromatography 1993, 621, 231-238). The detection of the (pro)drugs was performed at 226 nm, where it is supposed that the extinction coefficients of paclitaxel and paclitaxel prodrugs are equal. The concentrations were determined by measuring the relative area of paclitaxel or the paclitaxel prodrugs.

MCF7 Breast cancer = assay: Antiproliferative SRB assay, MCF7; format: cell-based, human; details: 37° C. 72 h, vs untreated cells
Method: (§1) Determination of the IC50-values for the new synthesized prodrugs have been determined with a variety of cell lines and have been compared with the IC50-value of paclitaxel 1 (see table II) Compounds 1, 5, 8, 11,:
(§2) The following human tumor cell lines were used:
(§3) MCF7 is estrogen receptor ER+/Progesterone receptor PgR+ and EVSA-T is ER-/PgR-.
(§4) Prior to the experiments a myocoplasma test was carried out on all cell lines and found to be negative. All cell lines, except ETSA-T, were maintained in a continuous logarithmic culture in RPMI medium with Hepes and Phenol red supplemented with 10% bovine calf serum (BCS), penicillin 111 IU/ml, streptomycin 111 μg/ml, gentamycin 46 μg/ml and insulin 10.6 μg/ml. EVSA-T was maintained in DMEM with 5% BCS and antibiotics as described. The cells were mildly trypsinized for passage and for use in experiments.
(§5) The compounds of this invention were dissolved to a concentration of 177147 ng/ml as follows:
(§6) On day 0, 200 μl of trypsinized tumor cells (2*10^3 cells/well) were plated in 96-wells flatbottom microtiter plates (Costar, no. 3799, Badhoevedorp, The Netherlands). The plates were preincubated 24 hr at 37° C., 5% CO2 to allow the cells to adhere.
(§7) […] The final volume of column 3 was adjusted to 200 μl with PBS. Column 2 was used for the blank. To column 1 PBS was added to diminish interfering evaporation.
(§8) […] Subsequently the cells were fixed with 10% trichloroacetic acid in Milli Q water (Millipore, Etten Leur, The Netherlands) and placed at 4° C. for one hour.
(§9) After five washings with tap water, the cells were stained for at least 15 min. with 0.4% SRB, dissolved in 1% acetic acid, and subsequently washed with 1% acetic acid to remove the unbound stain. The plates were air dried and the bound protein was dissolved by using 150 μl 10 mmol/l tris base. The absorbance was read at 540 nm using an automatic microplate reader (Titertec, Flow Laboratories LtD., Irvine, Scotland). Data were used for construction of concentration-response curves and determination of the IC50-value.

EVSA-T Breast cancer = assay: Antiproliferative SRB assay, EVSA-T; format: cell-based, human; details: 37° C. 72 h, vs untreated cells
Method: as §1, §2, §3, §4, §5, §6, §7, §8, §9

WIDR Colon cancer = assay: Antiproliferative SRB assay, WIDR; format: cell-based, human; details: vs untreated cells
Excerpt: as §1, §2
(§10) Cell lines WIDR, M19 MEL, A498 and IGROV belong to the currently used anti-cancer screening panel of the National Cancer Institute, USA (Skeham et al., J. Nat. Cancer Inst. 85: 1107-1112, 1990).
as §4, §5, §6, §7, §8, §9

IGROV Ovarian cancer = assay: Antiproliferative SRB assay, IGROV; format: cell-based, human; details: 37° C. 72 h, vs untreated cells
Excerpt: as §1, §2, §10, §4, §5, §6, §7, §8, §9

M19 MEL Melanoma = assay: Antiproliferative SRB assay, M19 MEL; format: cell-based, human; details: vs untreated cells
Excerpt: as §1, §2, §10, §4, §5, §6, §7, §8, §9

A498 Renal cancer = assay: Antiproliferative SRB assay, A498; format: cell-based, human; details: 37° C. 72 h, vs untreated cells
Excerpt: as §1, §2, §10, §4, §5, §6, §7, §8, §9

H226 = assay: Antiproliferative SRB assay, H226; format: cell-based, human; details: vs untreated cells
Method: as §1, §2
HA266 non small cell lung cancer
as §4, §5, §6, §7, §8, §9

OVCAR-3 cells = assay: In vitro antiproliferative effects, OVCAR-3; format: cell-based, human; details: 37° C. 72 h, vs untreated cells
Method: The human tumor cell line OVCAR-3 was used. OVCAR is an ovarium carcinoma.
In vitro antiproliferative effects: paclitaxel or paclitaxel prodrugs were dissolved in DMSO to give a concentration of 5 mM. Concentrations were verified by measuring the OD at 226 nm. The antiproliferative effects of drugs and prodrugs were determined with the use of OVCAR-3 cells. Cells in supplemented tissue culture medium (DMEM, 10% fetal calf serum with 50 IU/ml penicillin and 50 microgram/ml streptomycin) were seeded in triplicate in 96-well culture plates (5000/well, 100 microliter). After 24 h, 100 microliter of culture medium containing drug or prodrug was added to give final concentrations ranging from 1 picomolar to 10 micromolar.
The cells were incubated for an additional 72 h, fixed with 10% trichoroacetic acid and stained with sulforhodamine B. The absorbance at 540 nm was read and the antiproliferative effects were expressed as IC50 values, inhibition when compared with control cell growth (Houba et al. Bioconj. Chem. 1996, 7, 606-611).

[2] = Stability in PBS-buffer (pH 7.4), degradation to paclitaxel; format: physicochemical; details: for stability in PBS buffer: PBS-buffer pH 7.4
Method: The paclitaxel prodrugs (5, 6, 8, 11) were dissolved in water, sonicated and centrifuged. 100 μl of the above fluid was mixed with 400 μl of plasma (heparin) or PBS-buffer (pH7.4), respectively, in such way that the concentration of the prodrug was about 0.5 mg/mL. […] After mixing for 2 minutes (using a vortex), this mixture was centrifuged (2 minutes, 13000 g) and 100 μl EtOAc was evaporated (30 minutes, in vacuo). The (pro)drugs were dissolved in 50 μl eluent and analyzed by HPLC (Longnecker, S. M. Cancer Treat Rep. 1987, 71, 53-59). The efficiency for the extraction of paclitaxel was about 80%.

[3] = Stability in human plasma, degradation to paclitaxel; format: in vitro ADME; details: for T1/2 Human Plasma: human plasma (heparin), 37° C., time in which 50% of the analog is degraded to paclitaxel
Method: The paclitaxel prodrugs (5, 6, 8, 11) were dissolved in water, sonicated and centrifuged. 100 μl of the above fluid was mixed with 400 μl of plasma (heparin) or PBS-buffer (pH7.4), respectively, in such way that the concentration of the prodrug was about 0.5 mg/mL. The plasma or PBS-buffer, respectively, was incubated at 37° C. and on different points in time (T=0, 0.5, 1, 4, 20, 48 hours) 50 μl was extracted with 150 μl of EtOAc. After mixing for 2 minutes (using a vortex), this mixture was centrifuged (2 minutes, 13000 g) and 100 μl EtOAc was evaporated (30 minutes, in vacuo). The (pro)drugs were dissolved in 50 μl eluent and analyzed by HPLC (Longnecker, S. M. Cancer Treat Rep. 1987, 71, 53-59). The efficiency for the extraction of paclitaxel was about 80%.

human tumor cell lines = assay: Cytotoxic activity in human tumor cell lines, overall comparison with paclitaxel; format: cell-based
Method: as §1, §2, §6
On day 2, 100 μl of the highest drug concentration was added to the wells of column 12 and from there diluted 3-fold to column 3 by serial transfer of 100 μl using an 8 channel micropipette. The final volume of column 3 was adjusted to 200 μl with PBS. Column 2 was used for the blank. To column 1 PBS was added to diminish interfering evaporation.
On day 7 the incubation was terminated by washing the plates twice with PBS. […]
After five washings with tap water, the cells were stained for at least 15 min. with 0.4% SRB, dissolved in 1% acetic acid, and subsequently washed with 1% acetic acid to remove the unbound stain. […] The absorbance was read at 540 nm using an automatic microplate reader (Titertec, Flow Laboratories LtD., Irvine, Scotland). […]

IC50 MCF7 (MCF7 Breast cancer) [ng/mL] | IC50 EVSA-T (EVSA-T Breast cancer) [ng/mL] | IC50 WIDR (WIDR Colon cancer) [ng/mL] | IC50 IGROV (IGROV Ovarian cancer) [ng/mL] | IC50 M19 MEL (M19 MEL Melanoma) [ng/mL] | IC50 A498 (A498 Renal cancer) [ng/mL] | IC50 H226 (H226) [ng/mL] | Water Solubility [1] [µg/mL] | paclitaxel detected in PBS-buffer after 24 hours ([2]; PBS-buffer pH 7.4, after 24 hours) | T1/2 Human Plasma [3] | degradation to paclitaxel in human plasma ([3]; human plasma) | SMILES | Water Solubility ([1]; suspended to 2 mg/ml, sonicated 15 minutes, centrifuged, HPLC) [µg/mL] | IC50 (OVCAR-3 cells) [nM] | stability in PBS buffer [2] | cytotoxic activity compared to paclitaxel (human tumor cell lines)
<3 | <3 | <3 | <3 | 3 (≈ 3.09 nM) | 39 (≈ 40.2 nM) | 10 (≈ 10.3 nM) | 200 | only traces | 20 h |  | CC(=O)O[C@H]1C(=O)[C@@]2(C)[C@H]([C@H](OC(=O)c3ccccc3)[C@]3(O)C[C@H](OC(=O)[C@H](OC(=O)CC(O)C(=O)O)[C@@H](NC(=O)c4ccccc4)c4ccccc4)C(C)=C1C3(C)C)[C@]1(OC(C)=O)CO[C@@H]1C[C@@H]2O (some centres unmarked) [Compound 5, 2′-Malylpaclitaxel] |  |  | sufficient stability; also recorded: stable | 
69 (≈ 63.5 nM) | 59 (≈ 54.3 nM) | 167 (≈ 154 nM) | 49 (≈ 45.1 nM) | 311 (≈ 286 nM) | 436 (≈ 401 nM) | 241 (≈ 222 nM) | 500 |  | no pacl.^b | no degradation to the parent drug | CC(=O)OC1C(=O)C2(C)C(OC(=O)CC(O)C(=O)O)CC3OCC3(OC(C)=O)C2C(OC(=O)c2ccccc2)C2(O)CC(OC(=O)C(OC(=O)CC(O)C(=O)O)C(NC(=O)c3ccccc3)c3ccccc3)C(C)=C1C2(C)C (centres unmarked) [Compound 8, 2′, 7-Bis(malyl)paclitaxel] |  |  | sufficient stability; also recorded: no degradation to the parent drug | reduced cytotoxic activity

SMILES | IC50 MCF7 (MCF7 Breast cancer) [ng/mL] | IC50 EVSA-T (EVSA-T Breast cancer) [ng/mL] | IC50 WIDR (WIDR Colon cancer) [ng/mL] | IC50 IGROV (IGROV Ovarian cancer) [ng/mL] | IC50 M19 MEL (M19 MEL Melanoma) [ng/mL] | IC50 A498 (A498 Renal cancer) [ng/mL] | IC50 H226 (H226) [ng/mL] | Water Solubility [1] [µg/mL] | paclitaxel detected in PBS-buffer after 24 hours ([2]; PBS-buffer pH 7.4, after 24 hours) | T1/2 Human Plasma [3] | degradation to paclitaxel in human plasma ([3]; human plasma) | Water Solubility ([1]; suspended to 2 mg/ml, sonicated 15 minutes, centrifuged, HPLC) [µg/mL] | IC50 (OVCAR-3 cells) [nM] | stability in PBS buffer [2] | cytotoxic activity compared to paclitaxel (human tumor cell lines)
CC(=O)O[C@H]1C(=O)[C@@]2(C)[C@H]([C@H](OC(=O)c3ccccc3)[C@]3(O)C[C@H](OC(=O)[C@H](O)[C@@H](NC(=O)c4ccccc4)c4ccccc4)C(C)=C1C3(C)C)[C@]1(OC(C)=O)CO[C@@H]1C[C@@H]2O [paclitaxel, Paclitaxel] | <3 | <3 | <3 | 33 (≈ 38.6 nM) | <3 | 5 (≈ 5.86 nM) | <3 |  |  |  |  | 10 | 0.25 |  | 
